According to patent EP0429304A2, “Pyridone-carboxylic acid derivatives and their use as veterinary medicines” (SHIONOGI SEIYAKU KABUSHIKI KAISHA trading under the name of …, priority 1989, dated 1991):
Where two headings read alike, the source gives them in different places.

Assays:
[1] = system: Streptococcus sp (Str.sp) SNO6119; assay: In vitro sensitivity test; assay type: cell-based; conditions: 25°C, 40 to 48 hours
Method: (§1) Survey of the sensitivity of the compound (I) to various strains of microorganisms was performed by a liquid dilution method […] an agar dilution method, in which the bacteria used were of animal origin and included the following strains (15 strains out of 11 bacteria): Chicken-origin strain: Mycoplasma gallisepticum (MG), Mycoplasma synoviae (MS), Hemophilus paragallinarum (H.pg) and Escherichia coli (E.coli); Pig-origin strain: Mycoplasma hyopneumoniae (Mh), Hemophilus pleuropneumonia (H.pp) and Bordetella bronchiseptica (B.br); Fish-origin strain: Pasteurella piscicida (P.pis) and Streptococcus sp (Str.sp); others: Escherichia coli (E. coli), Salmonella typhimurium (S.typhi) and Staphylococcus aureus (S.au).
(§2) Of these bacteria, the strains belonging to MG, MS and Mh were cultured at 37°C for 7 days by a liquid dilution method, of which the culture medium comprised: 12 % horse-serum added "PPLO" (agar manufactured by Difco) medium for MG; 12 % pig-serum, 0.01 % βNAD (nicotinamide adenine dinucleotide) added Frey medium for MS; 0.5 % lactoalbumin added Hank's solution, 10 % horse-serum, 0.5 % yeast extract (25 %) for Mh, and the agar dilution method was applied to the strains belonging to H.pg, H.pp, S.typhi, E.coli, S.au and B.br. Specifically, the H.pg strain was cultured in a 5 % chicken-serum added chicken bouillon medium and the H.pp strain was cultured in a heart infusion agar added with 10 % sheep defibered blood and 0.05 % βNAD. In case of the H.pg and P.pp strains, observation was made after cultivation at 37°C for 20 hours under 10 % CO₂. Mueller Hinton agar (Difco) was used for the strains belonging to S.typhi, E.coli, S.au and B.br, and observation was made after cultivation at 37°C for 20 to 24 hours. P.pis and Str.sp, both being of fish-origin, were respectively cultured at 25°C for 40 to 48 hours in a 1.5 % NaCl added heart infusion agar and in a sensitive disk medium.

[2] = system: Pasteurella piscicida (P.pis) No. 2; assay: In vitro sensitivity test; assay type: cell-based; conditions: 25°C, 40 to 48 hours
Method: as §1, §2

[3] = system: TS-resistant strain of MG; assay type: in vivo, chicken; conditions: for Infectious index Left air sack + / Infectious index Left air sack ++ / Infectious index Left air sack +++ / Infectious index Left air sack - / Infectious index Right air sack + / Infectious index Right air sack ++ / Infectious index Right air sack +++ / Infectious index Right air sack -: count of fowl; for Infectious index Left air sack + / Infectious index Left air sack ++ / Infectious index Left air sack +++ / Infectious index Left air sack - / Infectious index Right air sack + / Infectious index Right air sack ++ / Infectious index Right air sack +++ / Infectious index Right air sack - / Number of fowl having air sack lesions: 10-days chicken
[4] = system: Salmonella typhimurium (S.typhi) 13311; assay: In vitro sensitivity test (agar dilution method); assay type: cell-based; conditions: 37°C, 20 to 24 hours
Method: as §1, §2

[5] = system: Escherichia coli (E.coli) JC-2; assay: In vitro sensitivity test (agar dilution method); assay type: cell-based; conditions: 37°C, 20 to 24 hours
Method: as §1, §2

[6] = system: Escherichia coli (E.coli) E-17, chicken-origin strain isolated from the field; assay: In vitro sensitivity test (agar dilution method); assay type: cell-based; conditions: 37°C, 20 to 24 hours
Method: as §1, §2

[7] = system: Hemophilus paragallinarum (H.pg) S-1; assay: In vitro sensitivity test (agar dilution method); assay type: cell-based
Method: as §1, §2

[8] = system: Bordetella bronchiseptica (B.br) ABU-1; assay: In vitro sensitivity test (agar dilution method); assay type: cell-based; conditions: 37°C, 20 to 24 hours
Method: as §1, §2

[9] = system: Hemophilus paragallinarum (H.pg) 221; assay: In vitro sensitivity test (agar dilution method); assay type: cell-based
Method: as §1, §2

[10] = system: Hemophilus pleuropneumonia (H.pp) M-1; assay: In vitro sensitivity test (agar dilution method); assay type: cell-based; conditions: 37°C, 20 hours, 10 % CO₂
Method: as §1, §2

[11] = system: Staphylococcus aureus (S.au) 209P; assay: In vitro sensitivity test (agar dilution method); assay type: cell-based; conditions: 37°C, 20 to 24 hours
Method: as §1, §2

[12] = system: Mycoplasma gallisepticum (MG) T-7-T, TS-resistant strain isolated from the field; assay: In vitro sensitivity test (liquid dilution method); assay type: cell-based; conditions: 37°C, 7 days
Method: as §1, §2

[13] = system: Mycoplasma gallisepticum (MG) S6; assay: In vitro sensitivity test (liquid dilution method); assay type: cell-based; conditions: 37°C, 7 days
Method: as §1, §2

[14] = system: Mycoplasma hyopneumoniae (Mh) ST-11; assay: In vitro sensitivity test (liquid dilution method); assay type: cell-based; conditions: 37°C, 7 days
Method: as §1, §2

[15] = oral 3.13 mg/kg, 1.2 x 10³ CFU/fowl
[16] = oral 6.25 mg/kg, 1.2 x 10³ CFU/fowl
[17] = oral 12.5 mg/kg, 1.2 x 10³ CFU/fowl
[18] = oral 25.0 mg/kg, 1.2 x 10³ CFU/fowl
[19] = agar dilution, 37°C, 20 hours, 10 % CO₂
[20] = oral 3.13 mg/kg, 3.0 x 10³ CFU/fowl
[21] = oral 6.25 mg/kg, 3.0 x 10³ CFU/fowl
[22] = oral 12.5 mg/kg, 3.0 x 10³ CFU/fowl

Compound: CNC[C@@]12CCC[C@@H]1CN(c1cc3c(cc1F)c(=O)c(C(=O)O)cn3C1CC1)C2 (relative stereo) [I-1, 7-[(1R*,5S*)-1-methylaminomethyl-3-azabicyclo[3.3.0]octan-3-yl]-1-cyclopropyl-6-fluoro-1,4-dihydro-4-oxo-3-quinolinecarboxylic acid]
- In vitro Sensitivity Test Str.sp SNO6119 [1]: 0.78 µg/mL
- In vitro Sensitivity Test P.pis No. 2 [2]: 0.78 µg/mL
- Infectious index Left air sack + [3, 15]: 1
- Infectious index Left air sack ++ [3, 15]: 0
- Infectious index Left air sack +++ [3, 15]: 0
- Infectious index Left air sack - [3, 15]: 4
- Infectious index Right air sack + [3, 15]: 1
- Infectious index Right air sack ++ [3, 15]: 3
- Infectious index Right air sack +++ [3, 15]: 1
- Infectious index Right air sack - [3, 15]: 0
- Infectious index Left air sack + [3, 16]: 0
- Infectious index Left air sack ++ [3, 16]: 0
- Infectious index Left air sack +++ [3, 16]: 0
- Infectious index Left air sack - [3, 16]: 5
- Infectious index Right air sack + [3, 16]: 3
- Infectious index Right air sack ++ [3, 16]: 1
- Infectious index Right air sack +++ [3, 16]: 0
- Infectious index Right air sack - [3, 16]: 1
- Infectious index Left air sack + [3, 17]: 0
- Infectious index Left air sack ++ [3, 17]: 0
- Infectious index Left air sack +++ [3, 17]: 0
- Infectious index Left air sack - [3, 17]: 5
- Infectious index Right air sack + [3, 17]: 0
- Infectious index Right air sack ++ [3, 17]: 1
- Infectious index Right air sack +++ [3, 17]: 0
- Infectious index Right air sack - [3, 17]: 4
- Infectious index Left air sack + [3, 18]: 0
- Infectious index Left air sack ++ [3, 18]: 0
- Infectious index Left air sack +++ [3, 18]: 0
- Infectious index Left air sack - [3, 18]: 5
- Infectious index Right air sack + [3, 18]: 0
- Infectious index Right air sack ++ [3, 18]: 0
- Infectious index Right air sack +++ [3, 18]: 0
- Infectious index Right air sack - [3, 18]: 5
- antimicrobial activity compared with ERFX ([3]; in vivo, po): nearly equal potency to ERFX
- Number of fowl having air sack lesions [3, 15]: 5
- Number of fowl having air sack lesions [3, 16]: 4
- Number of fowl having air sack lesions [3, 17]: 1
- Number of fowl having air sack lesions [3, 18]: 0
- In vitro Sensitivity Test S.typhi 13311 [4]: 0.2 µg/mL
- In vitro Sensitivity Test E.coli JC-2 [5]: 0.2 µg/mL
- In vitro Sensitivity Test E.coli E-17 [6]: 0.2 µg/ml
- In vitro Sensitivity Test H.pg S-1 [7, 19]: 0.78 µg/mL
- In vitro Sensitivity Test B.br ABU-1 [8]: 12.5 µg/mL
- In vitro Sensitivity Test H.pg 221 [9, 19]: 0.78 µg/mL
- In vitro Sensitivity Test H.pp M-1 [10]: 0.39 µg/mL
- In vitro Sensitivity Test S.au 209P [11]: 0.025 µg/mL
- In vitro Sensitivity Test MG T-7-T [12]: 0.025 µg/mL
- In vitro Sensitivity Test MG S6 [13]: 0.0125 µg/mL

Compound: CN[C@@H]1CCC[C@H]2[C@@H]1CCN2c1c(F)cc2c(=O)c(C(=O)O)cn(C3CC3)c2c1F (relative stereo) [I-3]
- In vitro Sensitivity Test Str.sp SNO6119 [1]: 0.78 µg/mL
- In vitro Sensitivity Test P.pis No. 2 [2]: 1.56 µg/mL
- Infectious index Left air sack + [3, 20]: 0
- Infectious index Left air sack ++ [3, 20]: 1
- Infectious index Left air sack +++ [3, 20]: 0
- Infectious index Left air sack - [3, 20]: 4
- Infectious index Right air sack + [3, 20]: 0
- Infectious index Right air sack ++ [3, 20]: 3
- Infectious index Right air sack +++ [3, 20]: 0
- Infectious index Right air sack - [3, 20]: 2
- Infectious index Left air sack + [3, 21]: 0
- Infectious index Left air sack ++ [3, 21]: 0
- Infectious index Left air sack +++ [3, 21]: 0
- Infectious index Left air sack - [3, 21]: 5
- Infectious index Right air sack + [3, 21]: 2
- Infectious index Right air sack ++ [3, 21]: 3
- Infectious index Right air sack +++ [3, 21]: 0
- Infectious index Right air sack - [3, 21]: 0
- Infectious index Left air sack + [3, 22]: 1
- Infectious index Left air sack ++ [3, 22]: 0
- Infectious index Left air sack +++ [3, 22]: 0
- Infectious index Left air sack - [3, 22]: 4
- Infectious index Right air sack + [3, 22]: 2
- Infectious index Right air sack ++ [3, 22]: 1
- Infectious index Right air sack +++ [3, 22]: 0
- Infectious index Right air sack - [3, 22]: 2
- Number of fowl having air sack lesions [3, 20]: 3
- Number of fowl having air sack lesions [3, 21]: 5
- Number of fowl having air sack lesions [3, 22]: 3
- In vitro Sensitivity Test S.typhi 13311 [4]: 0.1 µg/mL
- In vitro Sensitivity Test E.coli JC-2 [5]: 0.1 µg/mL
- In vitro Sensitivity Test E.coli E-17 [6]: 0.1 µg/ml
- In vitro Sensitivity Test H.pg S-1 [7]: 1.56 µg/mL
- In vitro Sensitivity Test B.br ABU-1 [8]: 6.25 µg/mL
- In vitro Sensitivity Test H.pg 221 [9]: 1.56 µg/mL
- In vitro Sensitivity Test H.pp M-1 [10]: 0.2 µg/mL
- In vitro Sensitivity Test S.au 209P [11]: 0.2 µg/mL
- In vitro Sensitivity Test Mh ST-11 [14]: 0.05 µg/mL
- In vitro Sensitivity Test MG T-7-T [12]: 0.05 µg/mL
- In vitro Sensitivity Test MG S6 [13]: 0.025 µg/mL

Compound: CN[C@H]1CCC[C@H]2CN(c3c(F)cc4c(=O)c(C(=O)O)cn(C5CC5)c4c3F)CC[C@H]21.Cl (relative stereo) [I-7, 1-cyclopropyl-6,8-difluoro-7-[(1R*,6R*,7S*)-7-methylamino-3-azabicyclo[4.4.0]decan-3-yl]-1,4-dihydro-4-oxo-3-quinolinecarboxylic acid hydrochloride]
- In vitro Sensitivity Test Str.sp SNO6119 [1]: 3.13 µg/mL
- In vitro Sensitivity Test P.pis No. 2 [2]: 6.25 µg/mL
- Infectious index Left air sack + [3, 20]: 0
- Infectious index Left air sack ++ [3, 20]: 0
- Infectious index Left air sack +++ [3, 20]: 0
- Infectious index Left air sack - [3, 20]: 5
- Infectious index Right air sack + [3, 20]: 0
- Infectious index Right air sack ++ [3, 20]: 3
- Infectious index Right air sack +++ [3, 20]: 1
- Infectious index Right air sack - [3, 20]: 1
- Infectious index Left air sack + [3, 21]: 1
- Infectious index Left air sack ++ [3, 21]: 0
- Infectious index Left air sack +++ [3, 21]: 0
- Infectious index Left air sack - [3, 21]: 5
- Infectious index Right air sack + [3, 21]: 1
- Infectious index Right air sack ++ [3, 21]: 3
- Infectious index Right air sack +++ [3, 21]: 1
- Infectious index Right air sack - [3, 21]: 0
- Infectious index Left air sack + [3, 22]: 0
- Infectious index Left air sack ++ [3, 22]: 0
- Infectious index Left air sack +++ [3, 22]: 0
- Infectious index Left air sack - [3, 22]: 5
- Infectious index Right air sack + [3, 22]: 2
- Infectious index Right air sack ++ [3, 22]: 1
- Infectious index Right air sack +++ [3, 22]: 2
- Infectious index Right air sack - [3, 22]: 0
- Number of fowl having air sack lesions [3, 20]: 4
- Number of fowl having air sack lesions [3, 21]: 5
- Number of fowl having air sack lesions [3, 22]: 5
- In vitro Sensitivity Test S.typhi 13311 [4]: 0.2 µg/mL
- In vitro Sensitivity Test E.coli JC-2 [5]: 0.39 µg/mL
- In vitro Sensitivity Test E.coli E-17 [6]: 0.39 µg/ml
- In vitro Sensitivity Test H.pg S-1 [7, 19]: >3.13 µg/mL
- In vitro Sensitivity Test B.br ABU-1 [8]: 6.25 µg/mL
- In vitro Sensitivity Test H.pg 221 [9, 19]: >3.13 µg/mL
- In vitro Sensitivity Test H.pp M-1 [10]: 0.78 µg/mL
- In vitro Sensitivity Test S.au 209P [11]: 0.78 µg/mL
- In vitro Sensitivity Test Mh ST-11 [14]: 0.1 µg/mL
- In vitro Sensitivity Test MG T-7-T [12]: 0.2 µg/mL
- In vitro Sensitivity Test MG S6 [13]: 0.05 µg/mL
